This is an account of results in patent US10787462B2, “Heterocyclic compound” (TAKEDA PHARMACEUTICAL COMPANY LIMITED, priority 2015, dated 2020).

This assay concerns the target T1, human RIPK1 (1-375) (Homo sapiens, UniProt Q13546).
T1 construct: human RIPK1 (1-375) gene; GST; made in house; host or cells: Sf-9 insect cells
T1 sequence (Q13546 1-375): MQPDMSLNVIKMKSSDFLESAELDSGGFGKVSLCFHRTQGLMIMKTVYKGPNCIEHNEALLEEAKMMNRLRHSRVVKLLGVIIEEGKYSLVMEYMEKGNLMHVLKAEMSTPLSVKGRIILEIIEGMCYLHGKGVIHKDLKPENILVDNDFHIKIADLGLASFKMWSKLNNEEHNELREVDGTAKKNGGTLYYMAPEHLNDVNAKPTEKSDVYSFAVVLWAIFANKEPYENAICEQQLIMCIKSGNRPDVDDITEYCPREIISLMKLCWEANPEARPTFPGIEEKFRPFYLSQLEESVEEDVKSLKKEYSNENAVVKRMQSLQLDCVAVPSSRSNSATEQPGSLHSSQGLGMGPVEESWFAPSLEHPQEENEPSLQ
The experiment in a line: Human RIPK1 enzyme inhibitory effect (ADP-Glo Kinase Assay). In kind it is biochemical. To be noted: read-out: human RIPK1 enzyme inhibitory effect at 10 μM (% inhibition), 10 μM test compound; well without enzyme = 100% inhibition. The essentials:
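Human RIPK1 (1-375), GST-purified from Sf-9 cells, preincubated 20 min at room temperature with compound in 25 mM HEPES pH 7.5, 10 mM MgCl2, 0.01% Tween-20, 2 mM DTT. Reaction started with 0.6 mM ATP solution (stock), run 120 min at room temperature. ADP measured by ADP-Glo luminescence.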
In general terms: In ADP-Glo the light output rises with the ADP produced.

Each structure is given as a SMILES string.

The term inhibition denotes the relative decrease from the control value, in per cent. Turning to `CN1C(=O)[C@@H](N2CCc3c(nn(Cc4ccccc4)c3Cl)C2=O)COc2cc(N3CCOCC3)ccc21` [Example 142, (3S)-3-(2-benzyl-3-chloro-7-oxo-2,4,5,7-tetrahydro-6H-pyrazolo[3,4-c]pyridin-6-yl)-5-methyl-8-(morpholin-4-yl)-2,3-dihydro-1,5-benzoxazepin-4(5H)-one], the inhibition at 10 µM came to 100%.
The value for `CN1C(=O)[C@@H](N2CCc3c(nn(Cc4cnccn4)c3Cl)C2=O)COc2ccc(F)cc21` [Example 143, (3S)-3-(3-chloro-7-oxo-2-(pyrazin-2-ylmethyl)-2,4,5,7-tetrahydro-6H-pyrazolo[3,4-c]pyridin-6-yl)-7-fluoro-5-methyl-2,3-dihydro-1,5-benzoxazepin-4(5H)-one] was 100%; that for `O=C1Nc2cc(Cl)ccc2OC[C@@H]1N1CCc2c(nn(Cc3ccccc3)c2Cl)C1=O` [Example 144, (3S)-3-(2-benzyl-3-chloro-7-oxo-2,4,5,7-tetrahydro-6H-pyrazolo[3,4-c]pyridin-6-yl)-7-chloro-2,3-dihydro-1,5-benzoxazepin-4(5H)-one] was 100%.
The value for `CN1C(=O)[C@@H](N2CCc3c(nn(Cc4ccccc4)c3Cl)C2=O)COc2ccc(C#N)cc21` [Example 145, (3S)-3-(2-benzyl-3-chloro-7-oxo-2,4,5,7-tetrahydro-6H-pyrazolo[3,4-c]pyridin-6-yl)-5-methyl-4-oxo-2,3,4,5-tetrahydro-1,5-benzoxazepine-7-carbonitrile] was 101%.
Take `CN1C(=O)[C@@H](N2CCc3c(nn(Cc4cnccn4)c3Cl)C2=O)COc2cc(Cl)ccc21` [Example 146, (3S)-8-chloro-3-(3-chloro-7-oxo-2-(pyrazin-2-ylmethyl)-2,4,5,7-tetrahydro-6H-pyrazolo[3,4-c]pyridin-6-yl)-5-methyl-2,3-dihydro-1,5-benzoxazepin-4(5H)-one]: the inhibition at 10 µM was 101%.
The value for `CCNC(=O)c1ccc2c(c1)OC[C@H](N1CCc3c(nn(Cc4ccccc4)c3Cl)C1=O)C(=O)N2C` [Example 147, (3S)-3-(2-benzyl-3-chloro-7-oxo-2,4,5,7-tetrahydro-6H-pyrazolo[3,4-c]pyridin-6-yl)-N-ethyl-5-methyl-4-oxo-2,3,4,5-tetrahydro-1,5-benzoxazepine-8-carboxamide] was 100%; that for `CN1C(=O)[C@@H](N2CCc3c(nn(Cc4ccccc4)c3Cl)C2=O)COc2cc(C(=O)NCCOCCOCCOCCOc3ccc4ccccc4c3)ccc21` [Example 148, (3S)-3-(2-benzyl-3-chloro-7-oxo-2,4,5,7-tetrahydro-6H-pyrazolo[3,4-c]pyridin-6-yl)-5-methyl-N-(2-(2-(2-(2-(2-naphthyloxy)ethoxy)ethoxy)ethoxy)ethyl)-4-oxo-2,3,4,5-tetrahydro-1,5-benzoxazepine-8-carboxamide] was 101%.
The value for `CN1C(=O)[C@@H](N2CCc3cn(Cc4ccc(Cl)cc4)nc3C2=O)CSc2ccccc21` [Example 150, (3R)-3-(2-(4-chlorobenzyl)-7-oxo-2,4,5,7-tetrahydro-6H-pyrazolo[3,4-c]pyridin-6-yl)-5-methyl-2,3-dihydro-1,5-benzothiazepin-4(5H)-one] was 99%; that for `CN1C[C@H](N2CCc3cn(Cc4ccccc4)nc3C2=O)C(=O)N(C)c2ccccc21` [Example 151, (3S)-3-(2-benzyl-7-oxo-2,4,5,7-tetrahydro-6H-pyrazolo[3,4-c]pyridin-6-yl)-1,5-dimethyl-1,3,4,5-tetrahydro-2H-1,5-benzodiazepin-2-one] was 98%; that for `CN1C(=O)[C@@H](N2CCc3cn(Cc4ccccc4)nc3C2=O)COc2cc(F)ccc21` [Example 152, (3S)-3-(2-benzyl-7-oxo-2,4,5,7-tetrahydro-6H-pyrazolo[3,4-c]pyridin-6-yl)-8-fluoro-5-methyl-2,3-dihydro-1,5-benzoxazepin-4(5H)-one] was 99%.
